{
  "source": "paper PMC12519824",
  "about": "“Fatal outcome of severe serotonin syndrome and acute respiratory distress syndrome after self-poisoning with paroxetine: a case report” (Journal of Medical Case Reports, 2025)",
  "key": {"[1]": {"assay": "N-acetylcysteine treatment after paracetamol overdose (Prescott regimen)", "format": "in vivo, human", "details": "8000 mg paracetamol (160 mg/kg) ingested; e.g. elevated transaminases", "description": "(§1) A person with an estimated body weight of 50 kg ingested a total amount of 3150 mg agomelatine (63 mg/kg), 4000 mg paroxetine (80 mg/kg), 8000 mg paracetamol (160 mg/kg), 5000 mg acetylsalicylic acid (100 mg/kg), 1000 mg caffeine (20 mg/kg), and 25,200 mg ibuprofen (504 mg/kg) in suicidal intent (total of 336 pills). […] The patient was reported to be on regular paroxetine therapy. However, the exact dosage and frequency of intake were unknown. […] Owing to reported paracetamol overdose, N-acetylcysteine was administered (Fig. 1) according to the regimen described by Prescott et al.. All other medication—except for paroxetine—was deemed to be no longer clinically relevant by the contacted poison information center, based on the time elapsed since ingestion. […] The patient was then transferred to our tertiary care institution for specialized ARDS treatment. […] Therefore, a symptomatic therapy with olanzapine (10 mg/day) was started. Analgosedation with sufentanil was switched to hydromorphone to prevent further aggregation of serotonin, and corticosteroids were administered in an attempt to enhance paroxetine elimination by CYP2D6 induction. […] Once vv-ECMO was initiated, CytoSorb™ hemoadsorption could easily be added in an attempt to eliminate paroxetine."}, "[2]": {"assay": "Serum paroxetine level monitoring after self-poisoning", "format": "in vivo, human", "from_the_text": "However, the exact dosage and frequency of intake were unknown. […] As no severe life-threatening serotonin syndrome symptoms were present at that point and the patient´s condition kept improving, the decision for supportive treatment was made. […] Once vv-ECMO was initiated, CytoSorb™ hemoadsorption could easily be added in an attempt to eliminate paroxetine."}, "[3]": {"details": "cited from earlier work"}, "[4]": {"assay": "Clinical course of paroxetine overdose in multidrug self-poisoning (case report)", "format": "in vivo, human", "description": "as §1"}, "[5]": {"details": "cited from earlier work", "remark": "listed apart in the source"}, "[6]": {"details": "indicated value of the test laboratory; ref test laboratory; cited from earlier work"}, "[7]": {"details": "during serotonin syndrome attributed to paroxetine overdose"}},
  "note": "Read-outs that look alike come from different tables or passages of the source.",
  "data": [
    {"smiles": "CC(=O)N[C@@H](CS)C(=O)O", "note": "[acetylcysteine, N-acetylcysteine]", "values": [
      {"measurement": "development of paracetamol poisoning after treatment", "setting": "[1]", "result": "no clinically relevant paracetamol poisoning"}
    ]},
    {"smiles": "Fc1ccc([C@@H]2CCNC[C@H]2COc2ccc3c(c2)OCO3)cc1", "note": "[paroxetine]", "values": [
      {"measurement": "time with paroxetine levels in the lethal dose range", "setting": "[2]; after ingestion of 4000 mg paroxetine", "result": 20, "unit": "days"},
      {"measurement": "concentration at 8 day", "setting": "[2]; human, serum, oral, day 8 after ingestion of 4000 mg paroxetine (80 mg/kg), multidrug poisoning, one patient", "result": 3410, "unit": "ng/mL"},
      {"measurement": "complication of poisoning in a previous case report", "setting": "[3]; paroxetine poisoning", "result": "severe ARDS"},
      {"measurement": "adverse event with therapeutic intake in one patient", "setting": "[3]; stopped after paroxetine discontinuation", "result": "recurrent ARDS"},
      {"measurement": "clinical toxicity after overdose", "setting": "[4]; 4000 mg paroxetine with co-ingested drugs, person", "result": "severe serotonin syndrome complicated by acute respiratory distress syndrome"},
      {"measurement": "outcome", "setting": "[4]; 4000 mg paroxetine, despite CytoSorb, corticosteroids, olanzapine 10 mg/day and intensive care", "result": "the patient died on day 20 postingestion"},
      {"measurement": "onset of serotonin syndrome (day after ingestion)", "setting": "[4]; 4000 mg paroxetine, persisted until death on day 20", "result": 5, "unit": "days"},
      {"measurement": "recurrent fever", "setting": "[4]; [7]", "result": "up to 39.5 °C"},
      {"measurement": "tachycardia", "setting": "[4]; [7]", "result": "up to 142 bpm"},
      {"measurement": "hypotension", "setting": "[4]; during serotonin syndrome attributed to paroxetine overdose, printed 'hypotension up to', catecholamines needed", "result": "up to 82/52"},
      {"measurement": "plasma protein binding", "setting": "[5]; at therapeutic doses", "result": 95, "unit": "%"},
      {"measurement": "therapeutic half-life", "setting": "[5]", "result": "7 to 37", "unit": "h"},
      {"measurement": "volume of distribution", "setting": "[5]", "result": 17, "unit": "L/kg"},
      {"measurement": "prolonged half-life in poisoning", "setting": "[5]; poisoning with a dose of 1 g paroxetine", "result": 220, "unit": "h"},
      {"measurement": "prolonged half-life in poisoning", "setting": "[5]; poisoning with a dose of 2 g paroxetine", "result": 190, "unit": "h"},
      {"measurement": "critical value of paroxetine level", "setting": "[6]", "result": "> 120", "unit": "ng/mL"},
      {"measurement": "therapeutic range of paroxetine level", "setting": "[6]", "result": "20 to 65", "unit": "ng/mL"}
    ]},
    {"smiles": "COc1ccc(C(CN(C)C)C2(O)CCCCC2)cc1", "note": "(stereo not shown) [venlafaxine]", "values": [
      {"measurement": "adverse events after intentional overdose in a case report", "setting": "[3]", "result": "tremors, muscle rigidity, and sustained ankle clonus, followed by ARDS"}
    ]}
  ]
}
